Assay results reported in patent US20060229255A1, “Identification of n-alkylglycine trimers for induction of apoptosis” (priority 2003, published 2006).

Key:
[1] = test system: HT29 human colon adenocarcinoma cells; experiment: Cellular proliferation assay (MTT); format: cell-based; details: for IC50: HT29, MTT assay after 72 h, read-out: IC50 proliferation inhibition; for Anti-proliferative effect in combination with serial dilutions of Taxol versus Taxol alone: HT29, compound at its IC50, 72 h; for Effect of Taxol on the compound's proliferation inhibition: HT29, with low dose of Taxol (11 nM), 72 h
Excerpt: For screening of the peptoid library containing 10.648 compounds, controlled mixtures of trimers of N-alkylglycine oligomer molecules (peptoid) have been used and constructed under […] positional scanning formats. Chemical diversity was introduced through the substitution of position R1, R2 and R3 by 22 different primary amines. 66 controlled mixtures divided into three different subgroups depending on the R1, R2, R3 defined position. The library was screened on a cellular proliferation assay with HT29 human colon adenocarcinoma cells. The compounds were tested either alone or together with a low dose of Taxol (11 nM). After 72 h in culture, cellular viability was measured with the MTT assay.
Cellular Assays. Combinatorial libraries were screened on a cellular proliferation assay with HT29 human colon adenocarcinoma cells. The compounds were tested either alone or together with low doses of Taxol (nM). After 3 days in culture, cellular viability was measured with an MTT assay (3-4,5-Dimethyl-2-thiazolyl-2,5-diphenyl-2H-tetrazolium bromide). MTT was added at a final concentration of 1 mg/ml in the cell cultures, and after 4 h incubation at 37° C. cell lysis was performed with 15% SDS/DMF (v/v). Spectrophotometric measurement of MTT-formazan at 570 nm and a reference filter at 630 nm allows quantitation of cellular viability. Proliferation inhibition due to the compounds alone was compared to inhibition observed in Taxol plus compound treated cultures.
FIG. 1. Compounds N10-13-10C, N13-13-10C, N4-13-10C and N5-13-10C inhibit HT29 proliferation. Taxol interferes the effect of N10-13-10C and N13-13-10C. (A, B) HT29 cells were grown with peptoid at several concentrations with or without Taxol (11 nM). MTT assay was performed after 72 h of treatment. Proliferation inhibition is shown for N4-13-10C and N13-13-10C (A.), N5-13-10C and N10-13-10C (B.) compared to proliferation of control cells. IC50 value is specified for each peptoid. N10-13-10C and N13-13-10C were purified peptoids by HPLC, corresponding to the major and active fraction. N4-13-10C and N5-13-10C peptoids were not purified by HPLC. […] Proliferation was evaluated by MTT assay after 72 h of treatment. An arbitrary value of 100% was assigned to the densiometric rate of untreated cultures and all other values are depicted relative to that reference. The values are means of six (n=6) replicates.

[2] = test system: HT29 cells; experiment: DNA analysis by flow cytometry (cell cycle profile, sub-G1 peak); format: cell-based, human; details: for Dose dependence of subG1 peak: HT29, 72 h, increasing dose 1-35 or 40 μM; for Apoptosis induction (sub-G1 peak detection): HT29, 72 h treatment; for Cells in G1-phase: HT29, compound alone, 24 h in culture; for Maximum apoptosis in time-course: HT29, highest dose assayed, 72 h; for Cell population retained in G2/M phase: HT29, in combination with low doses of Taxol
Description: DNA analysis. Floating and adherent cells treated with the compounds were collected by trypsinization and washed twice with PBS. The cells were permeabilized overnight at −20° C. with ice-cold ethanol 70%. The cells were washed in PBS, adjusted at 0.5×10^6 cells/ml and incubated with 20 μg/ml Propidium Iodide and 2 μl/ml RNase DNase-free for 30 min at 30° C. Cells were maintained overnight at 4° C. and then analysed by flow cytometry. Flow cytometric experiments were carried out using an Epics XL flow cytometer (Coulter Corporation, Hialeah, Fla.). The instrumet was set up with the standard configuration: excitation of the sample was done using an standard 488 nm air-cooled argon-ion laser at 15 mW power. Forward scatter (FSC), side scatter (SSC) and red (620 nm) fluorescence for PI were adquired. Optical alignement was based on optimized signal from […] fluorescent beads (Immunocheck, Epics Division). Time was used as a control of the stability of the instrument. Red fluorescence was projected on a 1024 monoparametrical histogram. Aggregates were excluded gating single cells by their area vs. peak fluorescence signal. DNA analysis (Ploidy analysis) on single fluorescence histograms was done using Multicycle software (Phoenix Flow Systems, San Diego, Calif.).
FIG. 2. N10-13-10C and N13-13-10C are pro-apoptotic peptoids while N4-13-10C and N5-13-10C are not. Cell cycle profile was analysed by DNA staining. HT29 cells were grown for 72 h in presence of N4-13-10C (100 μM), N5-13-10C (100 μM), N10-13-10C (40 μM), N13-13-10C (35 μM), Taxol (11 nM) or DMSO as negative control. Fraction of cells at G0/G1, S, G2/M or subG1 peak are specified.
FIG. 3. Specific pro apoptotic effect of N10-13-10C and N13-13-10C. (A) SubG1 peak analysis on several cell lines including HT29, LoVo, MDA.MB.435 and its lung metastatic derivatives lung 2 and lung 6 after 72 h treatment with N10-13-10C or N13-13-10C at IC50 values specified on Table 1. (B) Dose-response analysis of subG1 peak after 72 h treatment of HT29 cells with N 10-13-10C or N13-13-10C at 1, 5, 10, 20, 30 and 35 or 40 μM, respectively. Both, floating and adherent cells were collected, fixed, stained with propidium iodide and DNA content was evaluated by flow cytometry. The fraction of cells with hypodiplod DNA content, i.e. subG1 peak are shown.
FIG. 4. (A) Time course analysis of cell cycle profile after treatment of HT29 cells with N10-13-10C (40 μM), N13-13-10C (35 μM) and/or Taxol (11 nM) for 24 h, 48 h and 72 h. The fraction of cells with subG1 (dark blue), G0/G1 (red), S (yellow), G2/M (blue) DNA content are shown as % of total cell population. (B.) N13-13-10C pulse experiments. HT29 cells were treated transiently with 35 μM N13-13-10C for 1, 3, 6, 24, 48 or 72 h and returned to medium without product for up to 72 h. DNA staining was analyzed by flow cytometry.

| Structure (SMILES) | IC50 [1] | Anti-proliferative effect in combination with serial dilutions of Taxol versus Taxol alone [1] | Effect of Taxol on the compound's proliferation inhibition [1] | Dose dependence of subG1 peak [2] | Apoptosis induction (sub-G1 peak detection) [2] | Cells in G1-phase [2] | Maximum apoptosis in time-course [2] | Cell population retained in G2/M phase [2] | Pulse necessary for irreversible induction of apoptosis ([2]; HT29, 35 μM, returned to drug-free medium up to 72 h) | Cell cycle profile after short time pulses ([2]; HT29, pulses of 1, 3 and 6 h) |
| --- | --- | --- | --- | --- | --- | --- | --- | --- | --- | --- |
| COc1ccc(CCN(CC(=O)N(CCc2ccccc2)CC(N)=O)C(=O)CNCCc2ccccc2)cc1 [N10-13-10C] | 40 µM | potentated anti-proliferative effect | Taxol prevented the compound's effect | dose-dependent apoptosis | able to induce apoptosis | increase the percentage of cells in G1-phase | 20% | about 60% | – | – |
| COc1ccc(CCNCC(=O)N(CCc2ccc(OC)cc2)CC(=O)N(CCc2ccccc2)CC(N)=O)cc1 [N13-13-10C] | 35 µM | potentated anti-proliferative effect | Taxol prevented the compound's effect | dose-dependent apoptosis | able to induce apoptosis | increase the percentage of cells in G1-phase | around 40% | about 60% | ≥ 24 h | do not differ from control cells |
